The record followed here is publication PMC4109680, “Identification and Preclinical Pharmacology of the γ-Secretase Modulator BMS-869780” (International Journal of Alzheimer's Disease, 2014).

This series can be described thus: Pharmacokinetics in male cynomolgus monkeys. Format: in vivo. The note with it: cynomolgus monkey, plasma. The protocol:
Male Sprague-Dawley (SD) rats (300–350 g) were fasted overnight, and three per group received BMS-869780 either as an intravenous (IV) infusion in PEG400 : ethanol (90 : 10 w/w) at 1 mg/kg over 5 min via the jugular vein or as nanosuspension (d50 ca. 300 nm) by oral gavage at 5 mg/kg in Povidone K-30 : sodium lauryl sulfate : water (2.5 : 0.12 : 97.38 w/w/w/w). For the IV infusion, serial blood samples were obtained before dose and at 0.17, 0.25, 0.5, 0.75, 1, 2, 4, 6, 8, and 24 hours after dose. For the PO nanosuspension, serial blood samples were obtained before dose and at 0.25, 0.5, 0.75, 1, 2, 4, 6, 8, and 24 h after dose. Blood samples, ~0.3 mL, for all studies were collected from the jugular vein into K3EDTA-containing tubes and then centrifuged at 4°C (1500–2000 ×g) to obtain plasma, which was stored at −20°C until analysis by LC/MS/MS. In male beagle dogs, the PK of BMS-869780 was evaluated in a cross-over study design with a one-week washout between treatments. Dogs were fasted overnight, and three animals (9.5 to 10.7 kg) received BMS-869780 by IV infusion at 1 mg/kg over 5 minutes in PEG400 : ethanol (90 : 10 w/w) or as nanosuspension (d50 ca. 300 nm) by oral gavage at 5 mg/kg in Povidone K-30 : sodium lauryl sulfate : water (2.5 : 0.12 : 97.38 w/w/w/w). Serial blood samples (~0.3 mL) were collected from a saphenous vein into K3EDTA-containing tubes before dose and at 0.083, 0.17, 0.25, 0.5, 0.75, 1, 2, 4, 6, 8, and 24 hours after IV dose, and 0.25, 0.5, 0.75, 1, 2, 4, 6, 8, and 24 hours after oral dose, followed by centrifugation at 4°C (1500 to 2000 ×g) to obtain plasma. Samples were stored at −20°C until analysis of BMS-869780 levels by LC-MS/MS. In male cynomolgus monkeys, the PK of BMS-869780 was evaluated in a cross-over study design with a 1-week washout between treatments. Following an overnight fast, three animals (4.5 to 8 kg) received BMS-869780 by IV infusion via a femoral vein at 1 mg/kg over 10 minutes in PEG400 : ethanol (90 : 10), or by oral gavage at 5 mg/kg in Povidone K-30 : sodium lauryl sulfate : water (2.5 : 0.12 : 97.38). Serial blood samples, ~0.3 mL, were collected from a femoral artery into K3EDTA-containing tubes before dose and at 0.083, 0.17, 0.25, 0.5, 0.75, 1, 2, 4, 6, 8, and 24 hours after IV dose, and 0.25, 0.5, 0.75, 1, 2, 4, 6, 8, and 24 hours after oral dose, followed by centrifugation at 4°C (1500 to 2000 ×g) to obtain plasma. Samples were stored at −20°C until analysis of BMS-869780 levels by LC-MS/MS. The PK parameters of BMS-869780 were obtained by noncompartmental analysis of plasma concentration versus time data (WinNonlin software, Version 5.0; Pharsight Corporation, Mountain View, CA). The peak concentration (C max) and time for C max (T max) were recorded directly from experimental observations. The area under the curve from time zero to the last sampling time (AUC^0-T) and the area under the curve from time zero to infinity (AUC^INF) were calculated using a combination of linear and log trapezoidal summations. The total plasma clearance (CLTp), steady-state volume of distribution (Vss), apparent elimination half-life (T 1/2), and mean residence time (MRT) were estimated after IV administration. The absolute oral bioavailability (F) was estimated as the ratio of dose-normalized AUC values following oral and IV doses.
Figure 9 Pharmacokinetics (PK) of BMS-869780 across species for prediction of human PK. Rats, dogs, and cynomolgus monkeys were dosed with BMS-869780 intravenously (IV ▲) at 1 mg/kg or oral nanosuspension (PO ●) at 5 mg/kg. Plasma concentrations of BMS-869780 were determined for up to 24 hours after the dose. (a) Rat. (b) Dog. (c) Cynomolgus monkey.

Regarding `COc1cc(Nc2nc3n(n2)CCCC[C@H]3c2ccc(F)cc2)ccc1-n1cnc(Cl)c1` [BMS-869780], where the note is “IV 1 mg/kg”, the area under the curve AUC(0-t) (commonly exposure summed from dosing to a finite time, without extrapolation to infinity) was 2.63 ± 0.926 µM·h; the MRT (commonly a mean duration of stay, worked out from the concentration-time curve) is 3.8 ± 0.7 h; the clearance (in general, a measure of how efficiently the substance is removed, as volume per time) turned out to be 15.2 ± 5.9 mL/min/kg; the half-life (commonly the time in which the quantity being followed falls by half) was 4 ± 0.5 h. The Vd (IV 1 mg/kg, read-out: Vss) is 3.7 ± 1.3 L/kg. For the setting “PO suspension 5 mg/kg”, the AUC(0-t) was found to be 2.03 ± 1.04 µM·h; the Cmax (as a rule, the peak of the concentration-time curve) came out at 219 ± 94 nM; the Tmax (usually the time at which the peak concentration occurs) was found to be 2 h; the bioavailability (as a rule, the share of a dose that reaches the circulation, judged against a reference dose that is usually intravenous) was determined as 16%.
